Test results: paper PMC11513842, “Development of an orally bioavailable CDK12/13 degrader and induction of synthetic lethality with AKT pathway inhibition” (Cell Reports Medicine, 2024)
Read-outs that look alike come from different tables or passages of the source.

Assays:
22RV1 = assay: Cell viability assay (CellTiter-Glo, 5 days); assay type: cell-based; conditions: Homo sapiens
Description: (§1) Cells were seeded in 96-well plates and incubated at 37°C with 5% CO2 overnight. A series of compound dilutions were added into the cells. After 5 days incubation, cell proliferation was tested using the CellTiter-Glo assay (Promega) according to the manufacturer’s protocol. Luminescence was measured using the Infinite M1000 Pro plate reader (Tecan). Data analysis was conducted using GraphPad Prism software.

BPH-1 = assay: Cell viability assay (CellTiter-Glo, 5 days); assay type: cell-based; conditions: Homo sapiens; BPH-1, dose-response curve, Figure 3A
Description: as §1

CWR22RV1 = assay: Cell viability assay (CellTiter-Glo, 5 days); assay type: cell-based; conditions: Homo sapiens, 120 h; CWR22RV1, 5 days of treatment, Figure 1F
Description: as §1

DU145 = assay: Cell viability assay (CellTiter-Glo, 5 days); assay type: cell-based; conditions: Homo sapiens, DU-145, 120 h; DU145, 5 days of treatment, Figure 1F
Description: as §1

LAPC4 = assay: Cell viability assay (CellTiter-Glo, 5 days); assay type: cell-based; conditions: Homo sapiens
Description: as §1

MCF10A = assay: Cell viability assay (CellTiter-Glo, 5 days); assay type: cell-based; conditions: Homo sapiens, MCF-10A, 120 h, 5 days of treatment, Figure 1F
Description: as §1

MCF12A = assay: Cell viability assay (CellTiter-Glo, 5 days); assay type: cell-based; conditions: Homo sapiens, MCF-12A, 120 h, 5 days of treatment, Figure 1F
Description: as §1

MCF7 = assay: Cell viability assay (CellTiter-Glo, 5 days); assay type: cell-based; conditions: Homo sapiens, 120 h; MCF7, 5 days of treatment, Figure 1F
Description: as §1

MDA-MB-468 = assay: Cell viability assay (CellTiter-Glo, 5 days); assay type: cell-based; conditions: Homo sapiens, 120 h; MDA-MB-468, 5 days of treatment, Figure 1F
Description: as §1

MFM223 = assay: Cell viability assay (CellTiter-Glo, 5 days); assay type: cell-based; conditions: Homo sapiens, MFM-223, 120 h; MFM223, 5 days of treatment, Figure 1F
Description: as §1

PC3 = assay: Cell viability assay (CellTiter-Glo, 5 days); assay type: cell-based; conditions: Homo sapiens, PC-3, 120 h; PC3, 5 days of treatment, Figure 1F
Description: as §1

PNT2 = assay: Cell viability assay (CellTiter-Glo, 5 days); assay type: cell-based; conditions: Homo sapiens, 120 h; PNT2, 5 days of treatment, Figure 1F
Description: as §1

PrEC = assay: Cell viability assay (CellTiter-Glo, 5 days); assay type: cell-based; conditions: Homo sapiens, 120 h, 5 days of treatment, Figure 1F
Description: as §1

RWPE1 = assay: Cell viability assay (CellTiter-Glo, 5 days); assay type: cell-based; conditions: Homo sapiens, RWPE-1; RWPE, dose-response curve, Figure 3A
Description: as §1

SK-BR-3 = assay: Cell viability assay (CellTiter-Glo, 5 days); assay type: cell-based; conditions: Homo sapiens, 120 h; SK-BR-3, 5 days of treatment, Figure 1F
Description: as §1

WPMY-1 = assay: Cell viability assay (CellTiter-Glo, 5 days); assay type: cell-based; conditions: Homo sapiens, 120 h; WPMY-1, 5 days of treatment, Figure 1F
Description: as §1

[1] = Pharmacokinetic profile in Sprague Dawley rats; assay type: in vivo, rat; conditions: Sprague-Dawley, rat, plasma, SD rats; for AUC(0-t): read-out: AUC(0-t); for Tmax: read-out: Tmax
PC310 PDX = assay: PC310 patient-derived xenograft efficacy; assay type: in vivo, mouse; conditions: i.v. 30 mg/kg 3x/week
Description: (§2) Six-week-old male CB17SCID mice obtained from Charles River (Stock # 236), were used to establish subcutaneous tumors on both dorsal flanks. Tumor dimensions were measured biweekly using digital calipers, applying the formula (π/6) (L × W^2), where L and W represent tumor length and width, respectively. At the study conclusion, mice were euthanized, and tumors were excised and weighed. The University of Michigan Institutional Animal Care and Use Committee (IACUC) approved all in vivo studies.
WA74 PDX model was developed at the University of Michigan during collection of a rapid autopsy case as part of the Michigan Legacy Tissue Program (MLTP). PC310 PDX model was obtained from Erasmus Medical Center, Rotterdam, the Netherlands. Both PDX lines were propagated in male CB17SCID mice by surgically implanting 2 mm^3 tumor fragments, coated with 100% Matrigel, into both flanks of mice. When tumors reached approximately 200 mm^3, mice were randomized into treatment groups. These groups received either 30 mg/kg YJ9069 via intravenous injection or 100 mg/kg YJ1206 by oral gavage, both administered three times per week, with or without 15 mg/kg uprosertib by oral gavage five days per week for 3–4 weeks. In accordance with IACUC guidelines, the maximum tumor size was limited to 2.0 cm in any dimension, and mice were euthanized if xenografts reached this endpoint.

[2] = Toxicity study in CD-1 immune-competent mice; assay type: in vivo, mouse
[3] = Body weight of treated animals in tumor models; assay type: in vivo, mouse; conditions: all tumor models (castrated VCaP, WA74 PDX, PC310 PDX), i.v. 30 mg/kg
Description: as §2
For the VCaP castration-resistant tumor model, 3×10^6 VCaP cells were subcutaneously injected into both dorsal flanks of mice using a serum-free medium mixed with 50% Matrigel (BD Biosciences). Upon tumors reaching palpable size (∼200 mm^3), animals underwent castration. When tumors regrew to their pre-castration size, mice were randomized for treatment with 30 mg/kg YJ9069 or vehicle via intravenous injection or 100 mg/kg YJ1206 or vehicle, with or without 15 mg/kg uprosertib by oral gavage. Treatments were administered three times weekly for three to four weeks.
For the 22Rv1 castration-resistant tumor model, mice underwent castration and then 12 days of recovery. Subsequently, 1 × 10^6 22Rv1 cells were subcutaneously injected into both dorsal flanks using a serum-free medium with 50% Matrigel (BD Biosciences). […]

**Q.** For `O=C1CCC(N2C(=O)c3cccc(OCC(=O)N4CCN(c5ccc(N(C(=O)NCc6ccccc6)C6CCC(Nc7ncc8ccccc8n7)CC6)cc5)CC4)c3C2=O)C(=O)N1` (stereo not drawn) [YJ9069], which IC50 (22RV1; 120 h, 22RV1, 5 days of treatment, Figure 1F) is on record?
**A.** 90.3 nM

**Q.** And the IC50 (22RV1; 22RV1, dose-response curve, Figure 3A)?
**A.** 144 nM

**Q.** What about the IC50 (BPH-1) of the same molecule?
**A.** > 10000 nM

**Q.** What about the IC50 (CWR22RV1) of the same molecule?
**A.** 428 nM

**Q.** What about the IC50 (DU145) of the same molecule?
**A.** > 10000 nM

**Q.** What about the IC50 (LAPC4; 120 h, LAPC4, 5 days of treatment, Figure 1F) of the same molecule?
**A.** 152 nM

**Q.** What about the IC50 (LAPC4; LAPC4, dose-response curve, Figure 3A) of the same molecule?
**A.** 109 nM

**Q.** And the IC50 (MCF10A)?
**A.** > 10000 nM

**Q.** And the IC50 (MCF12A)?
**A.** > 10000 nM

**Q.** What about the IC50 (MCF7) of the same molecule?
**A.** 1740 nM

**Q.** And the IC50 (MDA-MB-468)?
**A.** 678 nM

**Q.** What about the IC50 (MFM223) of the same molecule?
**A.** 44.2 nM

**Q.** What about the IC50 (PC3) of the same molecule?
**A.** 2390 nM

**Q.** What about the IC50 (PNT2) of the same molecule?
**A.** > 10000 nM

**Q.** And the IC50 (PrEC)?
**A.** > 10000 nM

**Q.** And the IC50 (RWPE1)?
**A.** > 10000 nM

**Q.** And the IC50 (SK-BR-3)?
**A.** 1280 nM

**Q.** What about the IC50 (WPMY-1) of the same molecule?
**A.** > 10000 nM

**Q.** What about the Cmax ([1]; iv, i.v. 2.5 mg/kg) of the same molecule?
**A.** 4130 nM

**Q.** What about the clearance ([1]; iv, i.v. 2.5 mg/kg) of the same molecule?
**A.** 14.1 mL/min/kg

**Q.** And the half-life ([1]; iv, i.v. 2.5 mg/kg)?
**A.** 4.39 h

**Q.** And the AUC ([1]; iv, i.v. 2.5 mg/kg, read-out: AUC(0-))?
**A.** 2970 ng·h/mL

**Q.** And the AUC(0-t) ([1]; iv, i.v. 2.5 mg/kg)?
**A.** 2930 ng·h/mL

**Q.** And the Tmax ([1]; iv, i.v. 2.5 mg/kg)?
**A.** 0.08 h

**Q.** What about the Cmax ([1]; oral 10 mg/kg) of the same molecule?
**A.** 6 nM

**Q.** What about the bioavailability ([1]; oral 10 mg/kg vs i.v. 2.5 mg/kg, read-out: F(%) (bioavailability by oral gavage)) of the same molecule?
**A.** 0.04%

**Q.** And the AUC(0-t) ([1]; oral 10 mg/kg)?
**A.** 5.06 ng·h/mL

**Q.** And the Tmax ([1]; oral 10 mg/kg)?
**A.** 1.56 h

**Q.** What about the “progressive disease (PD), waterfall plot (RECIST)” value (PC310 PDX) of the same molecule?
**A.** 63%

**Q.** What about the “stable disease (SD), waterfall plot (RECIST)” value (PC310 PDX) of the same molecule?
**A.** 31%

**Q.** And the toxicity ([2]; CD-1 female mice)?
**A.** no significant toxicity was observed

**Q.** What about the “genitourinary (GU) weight” value ([2]; CD-1 male mice) of the same molecule?
**A.** decrease in genitourinary (GU) weight

**Q.** What about the “serum chemistry and complete blood analyses” value ([2]; CD-1 male mice) of the same molecule?
**A.** no significant changes

**Q.** And the body weight loss ([2]; CD-1 male mice, doses of 30 mg/kg and 50 mg/kg, 3x/week)?
**A.** 10%

**Q.** And the toxicity in vivo ([2]; administered intravenously)?
**A.** mild to intermediate toxicity

**Q.** And the “body weight loss in the treated animals” value [3]?
**A.** less than 20%
